Measurements as given in ChEMBL document CHEMBL1201861, “Genomics of Drug Sensitity in Cancer screening data, Wellcome Trust Sanger Institute”.

Key:
Type in all cases: functional, cell-based
[1] = tested on: OVCAR-8; assay: cells; settings: Homo sapiens;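 also: growth inhibition of human OVCAR-8 cells, read out by a cell viability assay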
Description: SANGER: Inhibition of human OVCAR-8 cell growth in a cell viability assay.

[2] = tested on: SR; assay: cells; settings: Homo sapiens
Description: SANGER: Inhibition of human SR cell growth in a cell viability assay.

[3] = tested on: HN; assay: cells; settings: Homo sapiens
Description: SANGER: Inhibition of human HN cell growth in a cell viability assay.

[4] = tested on: NB1; assay: cells; settings: Homo sapiens;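 also: reduction of NB1 cell proliferation, read out with a viability assay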
Description: SANGER: Inhibition of human NB1 cell growth in a cell viability assay.

[5] = tested on: DMS-153; assay: cells; settings: Homo sapiens
Description: SANGER: Inhibition of human DMS-153 cell growth in a cell viability assay.

[6] = tested on: HCC38; assay: cells; settings: Homo sapiens;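 also: cell viability assay on the human HCC38 cell line, with IC50 marking the concentration that inhibits cell growth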
Description: SANGER: Inhibition of human HCC38 cell growth in a cell viability assay.

[7] = tested on: CAL-39; assay: cells; settings: Homo sapiens;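 also: cell viability assay measuring growth inhibition of CAL-39 cells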
Description: SANGER: Inhibition of human CAL-39 cell growth in a cell viability assay.

[8] = tested on: SW756; assay: cells; settings: Homo sapiens;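 also: growth inhibition of human SW756 cells, read out with a cell viability assay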
Description: SANGER: Inhibition of human SW756 cell growth in a cell viability assay.

[9] = tested on: RPMI-2650; assay: cells; settings: Homo sapiens
Description: SANGER: Inhibition of human RPMI-2650 cell growth in a cell viability assay.

[10] = tested on: MC-CAR; assay: cells; settings: Homo sapiens;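 also: growth inhibition of the human MC-CAR cell line, read out by a cell viability assay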
Description: SANGER: Inhibition of human MC-CAR cell growth in a cell viability assay.

[11] = tested on: TUR; assay: cells; settings: Homo sapiens;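 also: growth inhibition of human TUR cells, read out with a cell viability assay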
Description: SANGER: Inhibition of human TUR cell growth in a cell viability assay.

[12] = tested on: CAMA-1; assay: cells; settings: Homo sapiens;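 also: growth inhibition of CAMA-1 cells, read out with a cell viability assay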
Description: SANGER: Inhibition of human CAMA-1 cell growth in a cell viability assay.

[13] = tested on: CAL-33; assay: cells; settings: Homo sapiens;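 also: growth inhibition of CAL-33 cells, read out with a cell viability assay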
Description: SANGER: Inhibition of human CAL-33 cell growth in a cell viability assay.

[14] = tested on: IPC-298; assay: SANGER: Inhibition of human IPC-298 cell growth in a cell viability assay.
[15] = tested on: KMS-12-PE; assay: cells; settings: Homo sapiens;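 also: growth inhibition of human KMS-12-PE cells, measured with a cell viability assay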
Description: SANGER: Inhibition of human KMS-12-PE cell growth in a cell viability assay.

[16] = tested on: Calu-1; assay: SANGER: Inhibition of human Calu-1 cell growth in a cell viability assay.
[17] = tested on: T47D; assay: cells; settings: Homo sapiens;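 also: growth inhibition of human T47D cells, measured with a cell viability assay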
Description: SANGER: Inhibition of human T47D cell growth in a cell viability assay.

[18] = tested on: NCI-H2009; assay: cells; settings: Homo sapiens;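 also: cell viability assay measuring inhibition of NCI-H2009 cell growth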
Description: SANGER: Inhibition of human NCI-H2009 cell growth in a cell viability assay.

[19] = tested on: HuO-3N1; assay: cells; settings: Homo sapiens;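 also: cell viability readout used to measure how strongly compounds suppress proliferation of human HuO-3N1 cells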
Description: SANGER: Inhibition of human HuO-3N1 cell growth in a cell viability assay.

[20] = tested on: EFM-19; assay: cells; settings: Homo sapiens;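 also: growth inhibition of human EFM-19 cells, measured in a cell viability assay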
Description: SANGER: Inhibition of human EFM-19 cell growth in a cell viability assay.

[21] = tested on: SJRH30; assay: cells; settings: Homo sapiens;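 also: growth inhibition of human SJRH30 cells, read out with a cell viability assay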
Description: SANGER: Inhibition of human SJRH30 cell growth in a cell viability assay.

[22] = tested on: HMV-2 cell line; assay: cells; settings: Homo sapiens;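 also: growth inhibition of HMV-II cells, read out with a cell viability assay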
Description: SANGER: Inhibition of human HMV-II cell growth in a cell viability assay.

[23] = tested on: NUGC-3; assay: cells; settings: Homo sapiens;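 also: growth inhibition of human NUGC-3 cells, read out with a cell viability assay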
Description: SANGER: Inhibition of human NUGC-3 cell growth in a cell viability assay.

[24] = tested on: KYSE-150 cell line; assay: cells; settings: Homo sapiens;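 also: growth inhibition of human KYSE-150 cells, read out with a cell viability assay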
Description: SANGER: Inhibition of human KYSE-150 cell growth in a cell viability assay.

[25] = tested on: HCC2157; assay: cells; settings: Homo sapiens;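 also: growth inhibition of the cancer cell line, read out as cell viability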
Description: SANGER: Inhibition of human HCC2157 cell growth in a cell viability assay.

[26] = tested on: C3A; assay: cells; settings: Homo sapiens;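 also: growth inhibition of C3A human cells, quantified with a cell viability readout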
Description: SANGER: Inhibition of human C3A cell growth in a cell viability assay.

[27] = tested on: EW-7; assay: SANGER: Inhibition of human EW-7 cell growth in a cell viability assay.
[28] = tested on: NCI-H596; assay: cells; settings: Homo sapiens;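 also: growth inhibition of NCI-H596 cells, read out with a cell viability assay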
Description: SANGER: Inhibition of human NCI-H596 cell growth in a cell viability assay.

[29] = tested on: MG-63; assay: cells; settings: Homo sapiens;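 also: growth inhibition of human MG-63 cells, read out with a cell viability assay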
Description: SANGER: Inhibition of human MG-63 cell growth in a cell viability assay.

[30] = tested on: VMRC-RCZ; assay: cells; settings: Homo sapiens
Description: SANGER: Inhibition of human VMRC-RCZ cell growth in a cell viability assay.

[31] = tested on: MHH-CALL-2; assay: cells; settings: Homo sapiens;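 also: growth inhibition of the cell line, read out in a cell viability assay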
Description: SANGER: Inhibition of human MHH-CALL-2 cell growth in a cell viability assay.

[32] = tested on: SNU-423; assay: cells; settings: Homo sapiens
Description: SANGER: Inhibition of human SNU-423 cell growth in a cell viability assay.

[33] = tested on: Ca-Ski; assay: cells; settings: Homo sapiens;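 also: cell viability assay measuring inhibition of Ca-Ski cell growth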
Description: SANGER: Inhibition of human Ca-Ski cell growth in a cell viability assay.

[34] = tested on: NCI-H2347; assay: cells; settings: Homo sapiens;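 also: growth inhibition of the cell line, read out with a cell viability assay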
Description: SANGER: Inhibition of human NCI-H2347 cell growth in a cell viability assay.

[35] = tested on: NCI-H460; assay: cells; settings: Homo sapiens;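 also: cell viability assay scoring growth inhibition of human NCI-H460 cells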
Description: SANGER: Inhibition of human NCI-H460 cell growth in a cell viability assay.

[36] = tested on: DG-75; assay: cells; settings: Homo sapiens;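 also: growth inhibition of DG-75 cells, read out with a cell viability assay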
Description: SANGER: Inhibition of human DG-75 cell growth in a cell viability assay.

[37] = tested on: NCI-H748; assay: cells; settings: Homo sapiens;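 also: growth inhibition of NCI-H748 cells, measured by a cell viability assay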
Description: SANGER: Inhibition of human NCI-H748 cell growth in a cell viability assay.

[38] = tested on: U-251; assay: cells; settings: Homo sapiens;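 also: growth inhibition of human U-251 cells, read out through a cell viability assay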
Description: SANGER: Inhibition of human U251 cell growth in a cell viability assay.

[39] = tested on: NCI-H64; assay: cells; settings: Homo sapiens;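 also: growth inhibition of NCI-H64 cells, read out with a cell viability assay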
Description: SANGER: Inhibition of human NCI-H64 cell growth in a cell viability assay.

[40] = tested on: RMG-I; assay: cells; settings: Homo sapiens;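 also: growth inhibition of human RMG-I cells, read out with a cell viability assay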
Description: SANGER: Inhibition of human RMG-I cell growth in a cell viability assay.

[41] = tested on: CMK; assay: cells; settings: Homo sapiens;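 also: growth inhibition of CMK cells, read out as cell viability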
Description: SANGER: Inhibition of human CMK cell growth in a cell viability assay.

[42] = tested on: CAL-54; assay: cells; settings: Homo sapiens;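 also: growth inhibition of CAL-54 cells, read out by a viability measurement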
Description: SANGER: Inhibition of human CAL-54 cell growth in a cell viability assay.

[43] = tested on: RT-4; assay: SANGER: Inhibition of human RT4 cell growth in a cell viability assay.
[44] = tested on: TGW; assay: cells; settings: Homo sapiens;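 also: growth inhibition of human TGW cells, read out with a cell viability assay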
Description: SANGER: Inhibition of human TGW cell growth in a cell viability assay.

[45] = tested on: DK-MG; assay: cells; settings: Homo sapiens;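 also: growth inhibition of DK-MG cells, read out with a cell viability assay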
Description: SANGER: Inhibition of human DK-MG cell growth in a cell viability assay.

[46] = tested on: MC-IXC; assay: cells; settings: Homo sapiens;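 also: growth inhibition of MC-IXC cells, read out with a cell viability assay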
Description: SANGER: Inhibition of human MC-IXC cell growth in a cell viability assay.

[47] = tested on: PA-1; assay: cells; settings: Homo sapiens;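 also: IC50 for suppression of PA-1 cell proliferation, determined with a cell viability read-out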
Description: SANGER: Inhibition of human PA-1 cell growth in a cell viability assay.

[48] = tested on: YKG-1; assay: cells; settings: Homo sapiens;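 also: cell growth inhibition, read out with a viability assay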
Description: SANGER: Inhibition of human YKG-1 cell growth in a cell viability assay.

[49] = tested on: IST-SL2; assay: cells; settings: Homo sapiens;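 also: growth inhibition of human IST-SL2 cells, read out by a cell viability assay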
Description: SANGER: Inhibition of human IST-SL2 cell growth in a cell viability assay.

[50] = tested on: HOP-92; assay: cells; settings: Homo sapiens;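 also: cell viability readout, with IC50 reflecting inhibition of HOP-92 cell growth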
Description: SANGER: Inhibition of human HOP-92 cell growth in a cell viability assay.

[51] = tested on: SW1783; assay: cells; settings: Homo sapiens
Description: SANGER: Inhibition of human SW1783 cell growth in a cell viability assay.

[52] = tested on: LCLC-97TM1; assay: cells; settings: Homo sapiens;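 also: cell viability assay measuring growth inhibition of human LCLC-97TM1 cells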
Description: SANGER: Inhibition of human LCLC-97TM1 cell growth in a cell viability assay.

[53] = tested on: Hs-578T; assay: cells; settings: Homo sapiens
Description: SANGER: Inhibition of human Hs-578-T cell growth in a cell viability assay.

[54] = tested on: AN3-CA; assay: cells; settings: Homo sapiens;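 also: growth inhibition of human AN3-CA cells measured by a cell viability assay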
Description: SANGER: Inhibition of human AN3-CA cell growth in a cell viability assay.

[55] = tested on: T-24; assay: cells; settings: Homo sapiens;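 also: growth inhibition of T-24 cells, read out with a cell viability assay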
Description: SANGER: Inhibition of human T-24 cell growth in a cell viability assay.

[56] = tested on: CAL-27; assay: cells; settings: Homo sapiens;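 also: Viability-based readout, IC50 reflecting inhibition of CAL-27 cell growth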
Description: SANGER: Inhibition of human CAL-27 cell growth in a cell viability assay.

[57] = tested on: SW780; assay: cells; settings: Homo sapiens;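 also: growth inhibition of the cells, read out with a cell viability assay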
Description: SANGER: Inhibition of human SW780 cell growth in a cell viability assay.

[58] = tested on: SNU-16; assay: cells; settings: Homo sapiens;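 also: growth inhibition of human SNU-16 cells, determined with a cell viability readout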
Description: SANGER: Inhibition of human NCI-SNU-16 cell growth in a cell viability assay.

[59] = tested on: TCC-SUP; assay: cells; settings: Homo sapiens;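 also: growth inhibition of TCC-SUP cells, read out with a cell viability assay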
Description: SANGER: Inhibition of human TCCSUP cell growth in a cell viability assay.

[60] = tested on: HCT-116; assay: cells; settings: Homo sapiens
Description: SANGER: Inhibition of human HCT-116 cell growth in a cell viability assay.

Question: What does the source list for `CO[C@@]12[C@H](COC(N)=O)C3=C(C(=O)C(C)=C(N)C3=O)N1C[C@@H]1N[C@@H]12` [MITOMYCIN]?
Answer: IC50 [1]: 176 nM; IC50 [2]: < 62.5 nM; IC50 [3]: 783 nM; IC50 [4]: 187 nM; IC50 [5]: 425 nM; IC50 [6]: 604 nM; IC50 [7]: 46.5 nM; IC50 [8]: 597 nM; IC50 [9]: 196 nM; IC50 [10]: 161 nM; IC50 [11]: 190 nM; IC50 [12]: 541 nM; IC50 [13]: 537 nM; IC50 [14]: 1230 nM; IC50 [15]: 3830 nM; IC50 [16]: 4810 nM; IC50 [17]: 6370 nM; IC50 [18]: 289 nM; IC50 [19]: 6450 nM; IC50 [20]: 2090 nM; IC50 [21]: 1670 nM; IC50 [22]: 166 nM; IC50 [23]: 16.9 nM; IC50 [24]: 34.1 nM; IC50 [25]: 727 nM; IC50 [26]: 194 nM; IC50 [27]: < 62.5 nM; IC50 [28]: 1540 nM; IC50 [29]: 226 nM; IC50 [30]: 199 nM; IC50 [31]: < 62.5 nM; IC50 [32]: 1520 nM; IC50 [33]: 53.8 nM; IC50 [34]: 850 nM; IC50 [35]: < 62.5 nM; IC50 [36]: 6250 nM; IC50 [37]: 59.5 nM; IC50 [38]: 129 nM; IC50 [39]: 1530 nM; IC50 [40]: 3460 nM; IC50 [41]: < 62.5 nM; IC50 [42]: 1840 nM; IC50 [43]: 1700 nM; IC50 [44]: 2760 nM; IC50 [45]: > 16000 nM; IC50 [46]: < 62.5 nM; IC50 [47]: 23.5 nM; IC50 [48]: 545 nM; IC50 [49]: 388 nM; IC50 [50]: 1940 nM; IC50 [51]: 38.6 nM; IC50 [52]: 139 nM; IC50 [53]: 6200 nM; IC50 [54]: 523 nM; IC50 [55]: 246 nM; IC50 [56]: 41.2 nM; IC50 [57]: > 16000 nM; IC50 [58]: 6740 nM; IC50 [59]: 482 nM; IC50 [60]: 1020 nM

Question: How did the IC50 [1] turn out when `C/C=C(/C)C(=O)O[C@H]1C(C)=C2[C@H]([C@@H]1OC(=O)CCCCCCC)[C@@](C)(OC(C)=O)C[C@H](OC(=O)CCC)[C@@]1(O)[C@H]2OC(=O)[C@@]1(C)O` [THAPSIGARGIN] was run?
Answer: 25 nM

Question: And the IC50 [2]?
Answer: > 512 nM

Question: And the IC50 [3]?
Answer: > 512 nM

Question: What about the IC50 [4] of the same compound?
Answer: 27.1 nM

Question: And the IC50 [5]?
Answer: 19.9 nM

Question: What about the IC50 [6] of the same compound?
Answer: 1.37 nM

Question: What about the IC50 [7] of the same compound?
Answer: < 2 nM

Question: And the IC50 [8]?
Answer: 12.7 nM

Question: And the IC50 [9]?
Answer: 2.74 nM

Question: And the IC50 [10]?
Answer: 24.4 nM

Question: And the IC50 [11]?
Answer: 12.5 nM

Question: What about the IC50 [12] of the same compound?
Answer: 10.5 nM

Question: What about the IC50 [13] of the same compound?
Answer: 30.7 nM

Question: What about the IC50 [14] of the same compound?
Answer: 6.54 nM

Question: What about the IC50 [15] of the same compound?
Answer: 297 nM

Question: And the IC50 [16]?
Answer: 2.1 nM

Question: What about the IC50 [17] of the same compound?
Answer: > 512 nM

Question: And the IC50 [18]?
Answer: 1.63 nM

Question: What about the IC50 [19] of the same compound?
Answer: 43.2 nM

Question: What about the IC50 [20] of the same compound?
Answer: > 512 nM

Question: What about the IC50 [21] of the same compound?
Answer: 8.84 nM

Question: And the IC50 [22]?
Answer: 6.87 nM

Question: And the IC50 [23]?
Answer: < 2 nM

Question: And the IC50 [24]?
Answer: 22.2 nM

Question: What about the IC50 [25] of the same compound?
Answer: 3.49 nM

Question: And the IC50 [26]?
Answer: 30.3 nM

Question: And the IC50 [27]?
Answer: 6.34 nM

Question: And the IC50 [28]?
Answer: 38.9 nM

Question: And the IC50 [29]?
Answer: 2.79 nM

Question: And the IC50 [30]?
Answer: 11.2 nM

Question: What about the IC50 [31] of the same compound?
Answer: 468 nM

Question: What about the IC50 [32] of the same compound?
Answer: < 2 nM

Question: And the IC50 [33]?
Answer: 32.2 nM

Question: And the IC50 [34]?
Answer: 10.2 nM

Question: And the IC50 [35]?
Answer: 8.37 nM

Question: What about the IC50 [36] of the same compound?
Answer: > 512 nM

Question: And the IC50 [37]?
Answer: 31.3 nM

Question: What about the IC50 [38] of the same compound?
Answer: < 2 nM

Question: And the IC50 [39]?
Answer: 6.45 nM

Question: What about the IC50 [40] of the same compound?
Answer: 13.3 nM

Question: And the IC50 [41]?
Answer: 33.3 nM

Question: What about the IC50 [42] of the same compound?
Answer: > 512 nM

Question: What about the IC50 [43] of the same compound?
Answer: 3.74 nM

Question: And the IC50 [44]?
Answer: 4.73 nM

Question: And the IC50 [45]?
Answer: 47.2 nM

Question: And the IC50 [46]?
Answer: 37.6 nM

Question: And the IC50 [47]?
Answer: 0.698 nM

Question: What about the IC50 [48] of the same compound?
Answer: 7.72 nM

Question: And the IC50 [49]?
Answer: 6.76 nM

Question: And the IC50 [50]?
Answer: 5.26 nM

Question: What about the IC50 [51] of the same compound?
Answer: 9.24 nM

Question: What about the IC50 [52] of the same compound?
Answer: < 2 nM

Question: What about the IC50 [53] of the same compound?
Answer: > 512 nM

Question: What about the IC50 [54] of the same compound?
Answer: < 2 nM

Question: And the IC50 [55]?
Answer: 12.3 nM

Question: And the IC50 [56]?
Answer: < 2 nM

Question: And the IC50 [57]?
Answer: > 512 nM

Question: What about the IC50 [58] of the same compound?
Answer: 189 nM

Question: What about the IC50 [59] of the same compound?
Answer: 51.6 nM

Question: And the IC50 [60]?
Answer: 0.943 nM
